Measurements reported in patent US10245249B2, “Pharmaceutical compositions comprising nitroxyl donors” (Cardioxyl Pharmaceuticals, Inc., priority 2013, dated 2019).

Experiments:
[1] = In vitro stability (half-life) in human plasma; assay type: in vitro ADME; details: male, human plasma pH 7.4 with anticoagulant, 37° C., read-out: T1/2 (minutes) Human
Protocol: (§1) Certain compounds from Tables 1 and 2 and CXL-1020 were tested for their stability in phosphate buffered saline (PBS) and plasma. The assay system comprised (i) PBS, or plasma from rat, dog or human (at least 3 donors, male, pooled) at pH 7.4, and (ii) for tests conducted in plasma, an anticoagulant (sodium heparin or sodium citrate). Each test compound (5 μM) was incubated in PBS or plasma at 37° C. on a THERMOMIXER® with shaking. Three samples (n=3) were taken at each of seven sampling time points: 0, 10, 30, 60, 90, 180 and 360 minutes. The samples were immediately combined with 3 volumes (i.e., 3 times the volume of PBS or plasma) of acetonitrile containing 1% formic acid and an internal standard to terminate the reaction. AB SCIEX API 3000 LC-MS/MS analysis of the test compounds was performed without a standard curve. Half-lives (T1/2) of the test compounds were determined from graphs of the percent remaining values using the peak area response ratio. For compounds tested multiple times, the value provided in the Table represents an average of the replicate assays.

[2] = In vitro stability (half-life) in rat plasma; assay type: in vitro ADME; details: rat plasma pH 7.4 with anticoagulant, 37° C.; for T1/2 (minutes) Rat: 5 μM; for half-life at 5 μM: male, rat, plasma, pH 7.4, 5 μM, read-out: T1/2 (minutes) Rat
Protocol: as §1

[3] = HNO production determined via N2O quantification (GC headspace analysis); assay type: physicochemical; details: PBS, 37° C.
Description: Nitrous oxide (N2O) is produced via the dimerization and dehydration of HNO, and is the most common marker for nitroxyl production (Fukuto et al., Chem. Res. Toxicol. 18:790-801 (2005)). […] Using either nitrous oxide gas or Angeli's salt (AS) as a standard, the relative amounts of N2O released from compounds of the disclosure was examined via gas chromatography (GC) headspace analysis.
A procedure for determining the relative amounts of N2O released from compounds of the disclosure is as follows. GC was performed on an Agilent gas chromatograph equipped with a split injector (10:1 splitting), microelectron capture detector, and a HP-MOLSIV 30 m×0.32 mm×25 μm molecular sieve capillary column. Helium was used as the carrier (4 mL/min) gas and nitrogen was used as the make-up (20 mL/min) gas. The injector oven and the detector oven were kept at 200° C. and 325° C., respectively. All nitrous oxide analyses were performed with the column oven held at a constant temperature of 200° C.
All gas injections were made using an automated headspace analyzer. Vial pressurization was 15 psi. The analyzer's sample oven, sampling valve, and transfer line were kept at 40° C., 45° C., and 50° C., respectively. The oven stabilization, vial pressurization, loop fill, loop equilibration, and sample injection times were 1.00 min., 0.20 min., 0.20 min., 0.05 min., and 1.00 min., respectively.
All determinations used a batch of nominal 20 mL headspace vials with volumes pre-measured for sample uniformity (actual vial volume varied by <2.0% relative standard deviation (n=6)). The average vial volume for the batch was determined from six randomly-selected vials by calculating the weight difference between the capped and sealed empty (i.e., air-filled) vial and the capped and sealed deionized water-filled vial using the known density of deionized water, then averaging. Blanks were prepared by sealing and capping two vials then purging each for 20 seconds with a gentle argon stream. Nitroxyl standards were prepared by sealing and capping four vials then purging each for 1 minute with a gentle stream, from a gas cylinder, of a 3000 ppm […].
CXL-1020 (N-hydroxy-2-methanesulfonylbenzene-1-sulfonamide) “standards” were prepared by, in duplicate, accurately weighing 10±0.5 mg of CXL-1020 and adding it to each 4 mL vial. Using an auto pipette, 1 mL of argon-purged anhydrous DMF (Sigma-Aldrich) was added to each 4 mL vial to form a CXL-1020 stock solution for each sample and the vials were capped and shaken and/or sonicated to insure complete dissolution upon visual observation. Using an auto pipette, 20 mL vials were charged with 5 mL of PBS (purged for at least 30 min. with argon prior to use), purged with argon for at least 20 sec., and sealed with a rubber septum. Using a 50 μL syringe, 50 μL of the CXL-1020 stock solution was injected into each 20 mL vial containing the PBS.
Samples were prepared as follows. In duplicate, 18±1 mg of each sample was accurately weighed into each 4 mL vial. Using an auto pipette, 1 mL of argon-purged anhydrous DMF was added to each 4 mL vial to form a sample stock solution for each sample and the vials were capped and shaken and/or sonicated to insure complete sample dissolution upon visual observation. Using an auto pipette, 20 mL vials were charged with 5 mL of PBS (purged for at least 30 min. with argon prior to use), purged with argon for at least 20 sec., and sealed with a rubber septum. The vials were equilibrated for at least 10 min. at 37° C. in a dry block heater. Thereafter, using a 50 μL syringe, 50 μL of a sample stock solution was injected into each 20 mL vial containing the PBS. The vials were then held at 37° C. in the dry block heater for a time period such that the sum of the time spent in the dry block heater plus the time spent in the automated headspace analyzer oven before sample injection equaled the desired incubation time. […]

[4] = In vitro stability (half-life) in phosphate buffered saline (PBS) pH 7.4; assay type: physicochemical; details: pH 7.4, 5 μM, PBS pH 7.4, 37° C., read-out: T1/2 (minutes) PBS
Protocol: as §1

[5] = In vitro stability (half-life) in dog plasma; assay type: in vitro ADME; details: dog plasma pH 7.4 with anticoagulant, 37° C.; for half-life at 5 μM: male, dog, plasma, pH 7.4, 5 μM, read-out: T1/2 (minutes) Dog
Protocol: as §1

Structure (SMILES)	half-life at 5 μM [1]	T1/2 (minutes) Rat [2]	Relative N2O Yield (90 minutes incubation) [3]	Relative N2O Yield (360 minutes incubation) [3]	half-life at 5 μM [4]	half-life at 5 μM [2]	half-life at 5 μM [5]	T1/2 (minutes) Dog ([5]; 5 μM)
Cc1noc(C)c1S(=O)(=O)NO [Compound 27, N-Hydroxy-3,5-dimethyl-1,2-oxazole-4-sulfonamide]	99 min	75 min	35.5%	66%				
O=S(=O)(NO)c1ccc(F)c(Cl)c1 [Compound 87, 3-Chloro-4-fluoro-N-hydroxybenzene-1-sulfonamide]			53%	79%	101 min	49 min	24 min	
CS(=O)(=O)c1ccc(S(=O)(=O)NO)cc1 [Compound 93, N-Hydroxy-4-methanesulfonylbenzene-1-sulfonamide]	35 min		86%		68 min	38 min		
CS(=O)(=O)c1cc(S(=O)(=O)NO)cs1 [Compound 8, N-Hydroxy-5-methanesulfonylthiophene-3-sulfonamide]			77%		42 min		27 min	
O=S(=O)(NO)c1cccnc1 [Compound 26, N-Hydroxypyridine-3-sulfonamide]	45 min		73.5%		53 min	29 min		
CC(C)NC(=O)c1cc(S(=O)(=O)NO)cs1 [Compound 5, 4-(Hydroxysulfamoyl)-N-(propan-2-yl)thiophene-2-carboxamide]	24 min		48%	72%	136 min	104 min	28 min	
Cc1cc(S(=O)(=O)NO)c(C(F)(F)F)o1 [Compound 7, N-Hydroxy-5-methyl-2-(trifluoromethyl)furan-3-sulfonamide]			51%		224 min		56 min	
O=S(=O)(NO)c1cccc(OC(F)(F)F)c1 [Compound 92, N-Hydroxy-3-(trifluoromethoxy)benzene-1-sulfonamide]	40 min	35.1 min	59%		58 min	35 min	19 min	18.5 min
O=S(=O)(NO)c1cccc(Br)c1 [Compound 89, 3-Bromo-N-hydroxybenzene-1-sulfonamide]					76 min	38.4 min	34 min	
Cc1ccc(F)cc1S(=O)(=O)NO [Compound 90, 5-Fluoro-N-hydroxy-2-methylbenzene-1-sulfonamide]			90%		25.1 min	6.8 min	21 min	
O=S(=O)(NO)c1cccc(S(=O)(=O)NO)c1 [Compound 88, 1-N,3-N-Dihydroxybenzene-1,3-disulfonamide]			53%	100%	38 min		16 min	
Cc1noc(C)c1S(=O)(=O)NO [Compound 91, N-Hydroxy-3,5-dimethyl-1,2-oxazole-4-sulfonamide]		176 min			211 min		54.4 min	
Cc1oncc1S(=O)(=O)NO [Compound 3, N-Hydroxy-5-methyl-1,2-oxazole-4-sulfonamide]	71 min		45%	56%	98 min	37 min	38 min	
O=[N+]([O-])c1cc(S(=O)(=O)NO)sc1Cl [Compound 47, 5-Chloro-N-hydroxy-4-nitrothiophene-2-sulfonamide]			58%	70%	11 min	< 5 min		
